Test results reported in the NIST ThermoML archive (doi:10.1016/j.fluid.2012.08.005).

Assay: xn = mol fraction of the nth substance listed
Conditions: 101 kPa, Liquid, Vibrating tube method

c1ccoc1 [furan] + CCCCCC
mass density [kg/m3]
Conditions | x1 = 0.12 | x1 = 0.199 | x1 = 0.365 | x1 = 0.511 | x1 = 0.623 | x1 = 0.786 | x1 = 0.908 | x1 = 1
293.15 K | 677.8 | 690.2 | 721.4 | 755.2 | 786.2 | 841.2 | 891.9 | 939.8
298.15 K | 673.9 | 686.1 | 717 | 750.5 | 781.4 | 835.9 | 886.4 | 934
303.15 K | 670 | 682.2 | 712.8 | 746 | 776.6 | 830.8 | 881 | 928.3

c1ccoc1 [furan] + Cc1ccccc1
mass density [kg/m3]
Conditions | x1 = 0.1 | x1 = 0.199 | x1 = 0.387 | x1 = 0.507 | x1 = 0.591 | x1 = 0.761 | x1 = 0.89 | x1 = 1
293.15 K | 873.3 | 878.9 | 889.8 | 897.7 | 903.8 | 917.5 | 929.2 | 939.8
298.15 K | 869.5 | 875 | 885.6 | 893.2 | 899.1 | 912.4 | 923.7 | 934
303.15 K | 865.9 | 871.2 | 881.5 | 888.9 | 894.6 | 907.5 | 918.4 | 928.3

CCCCCC [hexane] + c1ccoc1
x2 = 0
Conditions | mass density [kg/m3]
293.15 K | 660.8
298.15 K | 657
303.15 K | 653.3

Cc1ccccc1 [toluene] + c1ccoc1
x2 = 0
Conditions | mass density [kg/m3]
293.15 K | 868.2
298.15 K | 864.5
303.15 K | 861
